Measurements as given in patent US20230250096A1, “SUBSTITUTED PHENYL-1H-PYRROLO[2,3-c] PYRIDINE DERIVATIVES” (Janssen Pharmaceutica NV, priority 2021, published 2023).
pIC50: −log10 of the molar value.

The compounds below were run on MOLM14 cells (assay: Proliferation assay (spheroid confluence, 8 days), MOLM14). Conditions: Homo sapiens, MOLM-14, MOLM14; read-out: spheroid assay_MOLM14 IC50.
Assay type: cell-based, human
Method in brief: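 Absolute IC50 derived from spheroid confluence imaged on day 8, scaled between DMSO (0%) and a cytotoxic low control such as 1 μM staurosporin, fitted with variable slope, bounds fixed at 0 and 100%. Seeding 200 cells/well (300 for KO-52), ultra-low attachment plates, 0.3% DMSO, 37° C.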
`CNC(=O)c1cncc(N2CCC(N3CC(Cc4cn(-c5ccc(F)cc5C(=O)N(C)C(C)C)c5cncc(C)c45)C3)CC2)n1` [Compound 75] gave a pIC50 of 8.05.
`Cc1cncc2c1c(C[C@@H]1CCN(C[C@@H]3CCOC3)C1)cn2-c1ccc(F)cc1C(=O)N(C)C(C)C` (single isomer, unassigned) [Compound 190b] showed a pIC50 of 7.34.
Compound `CC(=O)N1C[C@@H]2CN([C@H]3C[C@@H](C(C(C)C)N4CC[C@H](Cc5cn(-c6ccc(F)cc6C(=O)N(C)C(C)C)c6cncc(C)c56)C4)C3)C[C@H]2C1` (mixture of isomers) [Compound 21] has a pIC50 of over 8.74.
`Cc1cncc2c1c(C[C@@H]1CCN(C[C@H]3CCOC3)C1)cn2-c1ccc(F)cc1C(=O)N(C)C(C)C` (single isomer, unassigned) [Compound 190a] was tested, and the pIC50 was 7.40.
`CC(=O)N1CCC(C)(CN2CC(Cc3cn(-c4ccc(F)cc4C(=O)N(C)C(C)C)c4cncc(C)c34)C2)CC1` [Compound 84] was tested, and the pIC50 was 7.20.
With `CNC(=O)N1CCC(CN2CCC(Cc3cn(-c4ccc(F)cc4C(=O)N(C)C(C)C)c4cncc(C)c34)CC2)CC1` [Compound 202] the pIC50 was 8.15.
In the case of `CNC(=O)[C@H]1CC[C@H](CN2CC(Cc3cn(-c4ccc(F)cc4C(=O)N(C)C(C)C)c4cncc(C)c34)C2)CC1` [Compound 74], the pIC50 was 8.40.
In the case of `Cc1cncc2c1c(C[C@@H]1CCN(C[C@H]3CC[C@@H](C(=O)N4CCC4)CC3)C1)cn2-c1ccc(F)cc1C(=O)N(C)C(C)C` [Compound 178], the pIC50 was 7.92.
With `CC(=O)N1CCN(CCCC(C(C)C)N2CC[C@@H](Cc3cn(-c4ccc(F)cc4C(=O)N(C)C(C)C)c4cncc(C)c34)C2)CC1` (mixture of isomers) [Compound 8] the pIC50 was 7.96.
`Cc1cncc2c1c(CC1CCN(CC3CCN(C(=O)[C@H](C)O)CC3)C1)cn2-c1ccc(F)cc1C(=O)N(C)C(C)C` (single isomer, unassigned) [Compound 86] was tested, and the pIC50 was 8.00.
In the case of `Cc1cncc2c1c(CC1CN(C[C@@H]3CCOC3)C1)cn2-c1ccc(F)cc1C(=O)N(C)C(C)C` (single isomer, unassigned) [Compound 191b], the pIC50 was 7.48.
With `Cc1cncc2c1c(CC1CN(CC3CCNC(=O)CC3)C1)cn2-c1ccc(F)cc1C(=O)N(C)C(C)C` (centres unmarked) [Compound 104] the pIC50 was 6.56.
`CN=S(=O)(c1cc(F)ccc1-n1cc(CC2CCN(CC3CCOCC3)C2)c2c(C)cncc21)C(C)C` (centres unmarked) [Compound 77] was tested, and the pIC50 was 7.05.
With `COCCN(C)CCC[C@@H](C(C)C)N1CC[C@H](Cc2cn(-c3ccc(F)cc3C(=O)N(C)C(C)C)c3cncc(Cl)c23)C1` (single isomer, unassigned) [Compound 4b] the pIC50 was 8.52.
`CN=S(=O)(c1cc(F)ccc1-n1cc(CC2CCN(CC3CCN(C(C)=O)CC3)C2)c2c(C)cncc21)C(C)C` (centres unmarked) [Compound 128] showed a pIC50 of 6.84.
With `CC(=O)N1CCC(N2CC[C@H](Cc3cn(-c4ccc(F)cc4C(=O)N(C)C(C)C)c4cncc(C)c34)C2)CC1` (single isomer, unassigned) [Compound 81] the pIC50 was 7.24.
With `CNC(=O)[C@H]1CC[C@H](CN2CC([C@H](C)c3cn(-c4ccc(F)cc4C(=O)N(C)C(C)C)c4cncc(C)c34)C2)CC1` (single isomer, unassigned) [Compound 164b] the pIC50 was 8.00.
`CC(=O)N1CCN(CCCC(C(C)C)N2CCC(Cc3cn(-c4ccc(F)cc4C(=O)N(C)C(C)C)c4cncc(C)c34)C2)CC1` (single isomer, unassigned) [Compound 9a] showed a pIC50 of 8.70.
Work on `CC(=O)N1CCC(CCN2CC[C@@H](Cc3cn(-c4ccc(F)cc4C(=O)N(C)C(C)C)c4cncc(C)c34)C2)CC1` [Compound 189] yielded a pIC50 of 6.59.
With `CN=[S@](=O)(c1cc(F)ccc1-n1cc(C[C@@H]2CCN(CC3CCN(C(C)=O)CC3)C2)c2c(C)cncc21)C(C)C` (single isomer, unassigned) [Compound 128a] the pIC50 was 6.17.
With `Cc1cncc2c1c(CC1CN(C[C@H]3CCOC3)C1)cn2-c1ccc(F)cc1C(=O)N(C)C(C)C` (single isomer, unassigned) [Compound 191a] the pIC50 was 8.15.
With `Cc1cncc2c1c(CC1CN(CC3CCOCC3)C1)cn2-c1ccc(F)cc1C(=O)N1CCC[C@H]1C` [Compound 279] the pIC50 was 7.92.
In the case of `Cc1cncc2c1c(CC1CN(CC3CCOCC3)C1)cn2-c1ccc(F)cc1C(=O)N(CCO)C(C)C` [Compound 281], the pIC50 was 8.00.
With `Cc1cncc2c1c(C[C@@H]1CCN(CC3CCC(O)CC3)C1)cn2-c1ccc(F)cc1C(=O)N(C)C(C)C` (single isomer, unassigned) [Compound 205a] the pIC50 was 7.64.
`COCC(=O)N1CCC(CN2CC[C@@H](Cc3cn(-c4ccc(F)cc4C(=O)N(C)C(C)C)c4cncc(C)c34)C2)CC1` (single isomer, unassigned) [Compound 136] gave a pIC50 of 7.55.
Work on `Cc1cncc2c1c(CC1CN(CC3CCC(O)CC3)C1)cn2-c1ccc(F)cc1C(=O)N(C)C(C)C` (centres unmarked) [Compound 144] yielded a pIC50 of 7.96.
`COCCN(C)CCC[C@H](C(C)C)N1CC[C@H](Cc2cn(-c3ccc(F)cc3C(=O)N(C)C(C)C)c3cncc(Cl)c23)C1` (single isomer, unassigned) [Compound 4a] gave a pIC50 of 6.88.
`Cc1cncc2c1c(C[C@@H]1CCN(CC3CCC(O)CC3)C1)cn2-c1ccc(F)cc1C(=O)N(C)C(C)C` (some centres unmarked) [Compound 205] gave a pIC50 of 7.72.
With `CC(=O)N1CCC(CN2CC[C@@H](Cc3cn(-c4ccc(F)cc4C(=O)N4CCC5CC54)c4cncc(C)c34)C2)CC1` (single isomer, unassigned) [Compound 311a] the pIC50 was 7.74.

Same assay, conditions: MOLM14; read-out: spheroid assay_MOLM14 IC50
In the case of `CN=S(=O)(c1cc(F)ccc1-n1cc(CC2CCN(CC3CCOCC3)C2)c2c(C)cncc21)C(C)C` (single isomer, unassigned) [Compound 77d], the pIC50 was 6.71.
Compound `CC(=O)N1CCC(CN2CC[C@@H](Cc3cn(-c4ccc(F)cc4C(=O)N4CCC5CC54)c4cncc(C)c34)C2)CC1` (single isomer, unassigned) [Compound 311b] has a pIC50 of 7.46.
`Cc1cncc2c1c(C[C@@H]1CCN(CC3CCC(O)CC3)C1)cn2-c1ccc(F)cc1C(=O)N(C)C(C)C` (single isomer, unassigned) [Compound 205b] was tested, and the pIC50 was 7.60.
